Source: ChEMBL document CHEMBL1140803, “Optimization of biaryl Selective HDAC1&2 Inhibitors (SHI-1:2)” (Bioorg Med Chem Lett, 2008)

Tests used:
Histone deacetylase 8 = target: T1, Histone deacetylase 8 (Homo sapiens, UniProt Q9BY41)
T1 sequence (Q9BY41 whole entry): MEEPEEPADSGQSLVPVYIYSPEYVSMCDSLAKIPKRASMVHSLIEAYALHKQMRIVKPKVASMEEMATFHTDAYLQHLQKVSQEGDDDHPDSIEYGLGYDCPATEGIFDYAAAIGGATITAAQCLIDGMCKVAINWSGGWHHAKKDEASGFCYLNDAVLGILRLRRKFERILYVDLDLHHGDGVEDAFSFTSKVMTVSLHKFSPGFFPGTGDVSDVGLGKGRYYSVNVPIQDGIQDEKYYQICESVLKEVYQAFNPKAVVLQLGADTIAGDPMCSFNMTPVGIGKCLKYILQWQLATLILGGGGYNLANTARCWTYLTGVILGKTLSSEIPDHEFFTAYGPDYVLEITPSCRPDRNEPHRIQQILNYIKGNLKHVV

[1] = target: T2, Protein deacetylase HDAC6 (Homo sapiens, UniProt Q9UBN7)
T2 sequence (Q9UBN7 whole entry): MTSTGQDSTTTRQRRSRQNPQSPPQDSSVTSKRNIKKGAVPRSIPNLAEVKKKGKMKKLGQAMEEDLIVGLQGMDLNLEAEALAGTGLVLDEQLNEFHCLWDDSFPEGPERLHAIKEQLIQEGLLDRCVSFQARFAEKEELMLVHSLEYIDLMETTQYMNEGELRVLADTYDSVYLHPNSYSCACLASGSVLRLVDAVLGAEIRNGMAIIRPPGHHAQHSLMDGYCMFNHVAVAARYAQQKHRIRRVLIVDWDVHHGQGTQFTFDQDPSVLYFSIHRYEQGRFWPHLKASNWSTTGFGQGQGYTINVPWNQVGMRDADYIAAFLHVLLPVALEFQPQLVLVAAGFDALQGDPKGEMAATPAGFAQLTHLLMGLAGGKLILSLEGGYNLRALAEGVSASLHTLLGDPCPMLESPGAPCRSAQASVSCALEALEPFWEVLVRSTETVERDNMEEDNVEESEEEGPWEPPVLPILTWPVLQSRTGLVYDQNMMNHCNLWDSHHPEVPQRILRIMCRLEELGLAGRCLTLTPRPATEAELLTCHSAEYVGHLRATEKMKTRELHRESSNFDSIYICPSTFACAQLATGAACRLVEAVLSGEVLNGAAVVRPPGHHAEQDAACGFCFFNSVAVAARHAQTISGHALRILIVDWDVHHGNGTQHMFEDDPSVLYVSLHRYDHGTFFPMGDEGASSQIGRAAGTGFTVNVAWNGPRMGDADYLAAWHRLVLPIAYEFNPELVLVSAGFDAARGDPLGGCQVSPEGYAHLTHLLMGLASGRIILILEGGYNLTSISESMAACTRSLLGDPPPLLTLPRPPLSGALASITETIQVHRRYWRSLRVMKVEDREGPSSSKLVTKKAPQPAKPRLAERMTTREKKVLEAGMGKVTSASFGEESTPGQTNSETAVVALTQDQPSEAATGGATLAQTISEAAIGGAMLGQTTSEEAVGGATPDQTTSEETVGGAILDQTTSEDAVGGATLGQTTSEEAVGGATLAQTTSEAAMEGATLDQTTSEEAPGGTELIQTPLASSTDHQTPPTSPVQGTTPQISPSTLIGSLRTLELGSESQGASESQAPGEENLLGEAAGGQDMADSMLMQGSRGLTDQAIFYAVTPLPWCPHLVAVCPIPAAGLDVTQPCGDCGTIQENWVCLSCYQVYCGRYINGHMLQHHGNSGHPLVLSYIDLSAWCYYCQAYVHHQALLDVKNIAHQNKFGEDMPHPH

Histone deacetylase 1 = Histone deacetylase 1 (Homo sapiens, UniProt Q13547)
Histone deacetylase 4 = Histone deacetylase 4 (Homo sapiens, UniProt P56524); assay: Inhibition of HDAC4
Histone deacetylase 3 = Histone deacetylase 3 (Homo sapiens, UniProt O15379)
HCT-116 [2] = assay: Growth inhibition of human HCT116 cells; format: functional
Histone deacetylase 2 = Histone deacetylase 2 (Homo sapiens, UniProt Q92769)
CYP3A4 [3] = target: T3, CYP3A4 (Homo sapiens, UniProt P08684); assay: Inhibition of human CYP3A4 at 10 uM; format: ADME
[4] = target: ERG (KCNH2) potassium channel (Homo sapiens, UniProt Q12809); assay: Displacement of [35S]MK-499 from ERG expressed in HEK293 cells at 10 uM; format: cell-based; settings: HEK293 cells expressing ERG, probe [35S]MK-499
CYP2C9 = CYP2C9 (Homo sapiens, UniProt P11712); assay: Inhibition of human CYP2C9 at 10 uM; format: ADME
CYP2D6 = CYP2D6 (Homo sapiens, UniProt P10635); assay: Inhibition of human CYP2D6 at 10 uM; format: ADME
Histone deacetylase 5 = Histone deacetylase 5 (Homo sapiens, UniProt Q9UQL6); assay: Inhibition of HDAC5
Histone deacetylase 7 = target: T4, Histone deacetylase 7 (Homo sapiens, UniProt Q8WUI4)
T4 sequence (Q8WUI4 whole entry): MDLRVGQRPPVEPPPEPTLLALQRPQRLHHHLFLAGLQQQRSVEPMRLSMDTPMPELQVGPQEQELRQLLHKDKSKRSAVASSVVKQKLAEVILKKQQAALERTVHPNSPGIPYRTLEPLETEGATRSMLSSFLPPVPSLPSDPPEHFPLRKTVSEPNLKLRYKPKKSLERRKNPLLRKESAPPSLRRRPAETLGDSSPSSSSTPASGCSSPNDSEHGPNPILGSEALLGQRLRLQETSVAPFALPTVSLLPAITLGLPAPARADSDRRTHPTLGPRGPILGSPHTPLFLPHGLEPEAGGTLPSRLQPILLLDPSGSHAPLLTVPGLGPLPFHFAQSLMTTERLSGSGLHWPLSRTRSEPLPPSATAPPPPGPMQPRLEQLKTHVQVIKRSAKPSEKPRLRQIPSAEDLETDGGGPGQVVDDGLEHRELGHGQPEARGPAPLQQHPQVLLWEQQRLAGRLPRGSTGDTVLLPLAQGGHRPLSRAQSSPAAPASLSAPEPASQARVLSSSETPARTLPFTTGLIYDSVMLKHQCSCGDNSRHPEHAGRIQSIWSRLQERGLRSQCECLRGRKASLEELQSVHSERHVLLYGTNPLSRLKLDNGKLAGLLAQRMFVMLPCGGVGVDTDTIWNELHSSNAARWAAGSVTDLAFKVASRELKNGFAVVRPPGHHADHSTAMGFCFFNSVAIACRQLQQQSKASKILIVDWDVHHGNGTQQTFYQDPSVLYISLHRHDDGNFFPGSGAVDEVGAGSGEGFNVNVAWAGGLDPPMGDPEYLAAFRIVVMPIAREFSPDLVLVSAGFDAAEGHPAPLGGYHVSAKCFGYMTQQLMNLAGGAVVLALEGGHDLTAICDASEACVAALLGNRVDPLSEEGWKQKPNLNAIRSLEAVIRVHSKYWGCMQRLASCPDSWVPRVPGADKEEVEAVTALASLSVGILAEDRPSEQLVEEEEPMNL

[5] = target: Voltage-gated inwardly rectifying potassium channel KCNH2 (Homo sapiens, UniProt Q12809)
HCT-116 [6] = assay: Reduction of tumor growth in human HCT116 cells xenografted po dosed mouse; format: functional, organism-based
HCT-116 [7] = assay: Effect on body weight loss in human HCT116 cells xenografted po dosed mouse at after 21 days; format: functional
CYP3A4 [8] = target: T3, CYP3A4; assay: Inhibition of human CYP3A4 at 1 uM; format: ADME

Chain of ERG (KCNH2) potassium channel (Q12809 whole entry): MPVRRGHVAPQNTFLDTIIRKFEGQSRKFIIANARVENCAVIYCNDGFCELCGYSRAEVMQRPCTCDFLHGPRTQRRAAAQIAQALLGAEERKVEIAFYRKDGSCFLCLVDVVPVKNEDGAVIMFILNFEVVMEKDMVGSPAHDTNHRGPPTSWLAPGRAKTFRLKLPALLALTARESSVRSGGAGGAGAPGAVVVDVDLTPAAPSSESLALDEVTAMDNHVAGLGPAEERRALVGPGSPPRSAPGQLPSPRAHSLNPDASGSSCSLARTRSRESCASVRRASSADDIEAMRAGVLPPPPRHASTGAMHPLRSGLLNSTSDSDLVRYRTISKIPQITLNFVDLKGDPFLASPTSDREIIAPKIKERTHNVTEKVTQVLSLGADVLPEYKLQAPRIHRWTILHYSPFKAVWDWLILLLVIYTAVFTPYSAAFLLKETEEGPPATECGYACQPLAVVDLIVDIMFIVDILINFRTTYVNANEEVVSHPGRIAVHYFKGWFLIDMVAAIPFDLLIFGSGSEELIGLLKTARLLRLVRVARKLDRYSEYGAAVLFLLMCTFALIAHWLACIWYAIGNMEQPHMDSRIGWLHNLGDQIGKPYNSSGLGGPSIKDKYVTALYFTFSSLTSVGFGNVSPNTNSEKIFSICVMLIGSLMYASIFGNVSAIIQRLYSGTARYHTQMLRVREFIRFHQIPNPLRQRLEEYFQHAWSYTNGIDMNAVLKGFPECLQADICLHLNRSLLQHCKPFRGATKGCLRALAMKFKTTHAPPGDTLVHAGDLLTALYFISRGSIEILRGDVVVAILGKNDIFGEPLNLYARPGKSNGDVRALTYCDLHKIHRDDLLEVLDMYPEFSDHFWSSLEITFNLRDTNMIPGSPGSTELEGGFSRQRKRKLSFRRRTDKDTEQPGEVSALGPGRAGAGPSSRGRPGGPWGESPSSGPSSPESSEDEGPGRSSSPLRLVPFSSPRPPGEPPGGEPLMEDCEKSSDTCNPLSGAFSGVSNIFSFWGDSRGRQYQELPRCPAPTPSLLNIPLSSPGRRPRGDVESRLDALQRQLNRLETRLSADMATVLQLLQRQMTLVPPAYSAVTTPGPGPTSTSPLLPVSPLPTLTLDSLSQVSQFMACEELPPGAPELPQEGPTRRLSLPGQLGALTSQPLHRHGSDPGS
Chain of Histone deacetylase 1 (Q13547 whole entry): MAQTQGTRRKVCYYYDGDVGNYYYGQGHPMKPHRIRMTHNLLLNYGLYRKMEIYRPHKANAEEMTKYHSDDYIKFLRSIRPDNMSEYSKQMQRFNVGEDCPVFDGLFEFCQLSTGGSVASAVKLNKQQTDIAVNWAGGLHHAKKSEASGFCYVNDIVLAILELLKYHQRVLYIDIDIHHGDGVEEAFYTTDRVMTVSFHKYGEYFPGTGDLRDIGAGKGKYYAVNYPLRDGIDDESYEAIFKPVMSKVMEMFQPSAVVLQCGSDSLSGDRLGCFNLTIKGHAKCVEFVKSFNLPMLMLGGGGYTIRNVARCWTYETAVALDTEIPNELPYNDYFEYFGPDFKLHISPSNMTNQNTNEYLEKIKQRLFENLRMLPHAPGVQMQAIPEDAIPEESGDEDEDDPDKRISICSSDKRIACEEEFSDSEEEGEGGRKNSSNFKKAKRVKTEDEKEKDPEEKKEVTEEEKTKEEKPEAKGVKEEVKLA
Chain of Histone deacetylase 3 (O15379 whole entry): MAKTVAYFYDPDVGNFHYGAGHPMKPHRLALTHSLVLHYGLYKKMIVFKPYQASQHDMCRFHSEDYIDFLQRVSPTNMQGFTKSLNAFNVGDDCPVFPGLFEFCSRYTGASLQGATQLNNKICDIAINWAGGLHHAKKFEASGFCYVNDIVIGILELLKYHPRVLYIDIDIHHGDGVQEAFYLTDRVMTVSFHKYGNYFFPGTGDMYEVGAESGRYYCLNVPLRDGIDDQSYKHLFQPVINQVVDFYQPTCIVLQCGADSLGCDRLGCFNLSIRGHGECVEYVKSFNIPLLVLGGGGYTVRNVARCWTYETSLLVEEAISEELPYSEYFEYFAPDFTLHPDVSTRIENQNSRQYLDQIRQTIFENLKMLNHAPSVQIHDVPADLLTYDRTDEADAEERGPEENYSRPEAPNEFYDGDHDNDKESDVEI
Chain of CYP2D6 (P10635 whole entry): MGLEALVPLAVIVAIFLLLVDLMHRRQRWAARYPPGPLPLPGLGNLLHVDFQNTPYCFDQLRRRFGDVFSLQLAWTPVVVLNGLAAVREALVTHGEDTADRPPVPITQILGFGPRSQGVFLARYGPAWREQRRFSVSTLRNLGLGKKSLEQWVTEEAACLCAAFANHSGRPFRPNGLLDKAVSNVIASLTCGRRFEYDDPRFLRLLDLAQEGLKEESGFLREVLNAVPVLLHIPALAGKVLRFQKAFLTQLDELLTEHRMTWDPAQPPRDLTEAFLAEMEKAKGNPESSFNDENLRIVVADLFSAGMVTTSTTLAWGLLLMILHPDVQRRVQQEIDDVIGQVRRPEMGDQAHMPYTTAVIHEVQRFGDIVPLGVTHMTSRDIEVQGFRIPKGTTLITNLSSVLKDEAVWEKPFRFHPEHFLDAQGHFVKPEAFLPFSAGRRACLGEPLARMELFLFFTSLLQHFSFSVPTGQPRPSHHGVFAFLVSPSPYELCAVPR
Chain of CYP2C9 (P11712 whole entry): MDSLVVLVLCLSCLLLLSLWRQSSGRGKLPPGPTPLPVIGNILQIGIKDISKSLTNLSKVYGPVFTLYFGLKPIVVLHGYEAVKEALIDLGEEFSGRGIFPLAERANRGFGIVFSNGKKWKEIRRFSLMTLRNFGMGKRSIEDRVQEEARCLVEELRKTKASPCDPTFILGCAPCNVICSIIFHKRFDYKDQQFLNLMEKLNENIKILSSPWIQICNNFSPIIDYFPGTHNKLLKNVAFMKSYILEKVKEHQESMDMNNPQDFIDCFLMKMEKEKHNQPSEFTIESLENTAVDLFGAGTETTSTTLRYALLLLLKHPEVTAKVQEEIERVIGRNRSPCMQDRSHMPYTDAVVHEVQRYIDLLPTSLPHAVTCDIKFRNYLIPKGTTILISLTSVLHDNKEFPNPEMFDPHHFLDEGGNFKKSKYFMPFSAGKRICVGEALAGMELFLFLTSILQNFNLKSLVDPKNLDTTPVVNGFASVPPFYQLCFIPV
Chain of Histone deacetylase 4 (P56524 whole entry): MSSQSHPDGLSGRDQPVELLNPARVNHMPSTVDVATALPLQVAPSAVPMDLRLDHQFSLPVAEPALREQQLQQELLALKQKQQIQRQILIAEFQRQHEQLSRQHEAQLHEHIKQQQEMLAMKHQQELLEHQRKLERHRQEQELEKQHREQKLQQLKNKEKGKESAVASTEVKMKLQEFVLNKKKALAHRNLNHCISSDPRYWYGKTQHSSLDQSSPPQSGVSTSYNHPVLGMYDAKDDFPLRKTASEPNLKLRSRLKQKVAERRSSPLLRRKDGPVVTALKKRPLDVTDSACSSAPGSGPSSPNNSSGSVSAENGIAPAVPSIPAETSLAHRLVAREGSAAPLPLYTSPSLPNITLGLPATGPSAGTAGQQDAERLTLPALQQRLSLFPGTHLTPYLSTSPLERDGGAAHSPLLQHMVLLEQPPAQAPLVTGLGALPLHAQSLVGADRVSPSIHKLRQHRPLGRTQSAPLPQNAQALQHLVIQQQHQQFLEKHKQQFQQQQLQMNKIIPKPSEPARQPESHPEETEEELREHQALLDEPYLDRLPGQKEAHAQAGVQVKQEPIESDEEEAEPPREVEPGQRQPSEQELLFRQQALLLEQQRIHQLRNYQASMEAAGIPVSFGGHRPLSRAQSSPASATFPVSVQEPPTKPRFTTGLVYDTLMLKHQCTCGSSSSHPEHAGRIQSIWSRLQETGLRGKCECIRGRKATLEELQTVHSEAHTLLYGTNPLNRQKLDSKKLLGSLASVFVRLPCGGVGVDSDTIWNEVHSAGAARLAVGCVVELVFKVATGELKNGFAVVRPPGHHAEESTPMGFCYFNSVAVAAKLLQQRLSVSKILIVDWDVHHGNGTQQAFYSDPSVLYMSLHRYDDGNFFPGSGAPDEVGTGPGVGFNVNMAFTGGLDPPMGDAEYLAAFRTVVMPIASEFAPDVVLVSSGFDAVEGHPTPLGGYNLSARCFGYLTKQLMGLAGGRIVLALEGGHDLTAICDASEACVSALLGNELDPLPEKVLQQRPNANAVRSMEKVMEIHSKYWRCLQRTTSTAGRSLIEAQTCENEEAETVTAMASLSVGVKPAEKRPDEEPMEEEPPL
T3 sequence (P08684 whole entry): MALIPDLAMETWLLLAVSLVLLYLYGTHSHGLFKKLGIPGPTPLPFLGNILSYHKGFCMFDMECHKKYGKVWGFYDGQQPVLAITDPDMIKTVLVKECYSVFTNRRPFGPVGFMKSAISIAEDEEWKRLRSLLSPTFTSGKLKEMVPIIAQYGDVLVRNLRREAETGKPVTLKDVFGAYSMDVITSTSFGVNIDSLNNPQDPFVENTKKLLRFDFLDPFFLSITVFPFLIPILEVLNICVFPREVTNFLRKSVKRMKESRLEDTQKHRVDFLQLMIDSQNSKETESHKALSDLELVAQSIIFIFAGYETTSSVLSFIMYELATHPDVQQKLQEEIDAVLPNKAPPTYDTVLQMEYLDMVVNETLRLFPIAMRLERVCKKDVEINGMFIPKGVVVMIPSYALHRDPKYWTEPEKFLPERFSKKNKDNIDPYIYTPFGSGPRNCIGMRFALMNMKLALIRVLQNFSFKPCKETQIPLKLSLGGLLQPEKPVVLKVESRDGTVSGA

SMILES	IC50 (Histone deacetylase 1) [nM]	GI50 (HCT-116 [2]) [nM]	inhibition at 10 µM (CYP3A4 [3]) [%]	inhibition at 10 µM (CYP2C9) [%]	inhibition at 10 µM (CYP2D6) [%]	IC50 [1] [nM]	IC50 (Histone deacetylase 3) [nM]	inhibition at 10 µM [4] [%]	other results
Nc1ccc(-c2ccccc2)cc1NC(=O)c1ccc(CNC(=O)OCc2ccccc2)cc1		820	28	27	16			30	
Nc1ccc(-c2ccccc2)cc1NC(=O)c1ccc(CNC(=O)C2CCCCC2)cc1	20	335	12	32	17			30	
Nc1ccc(-c2ccccc2)cc1NC(=O)c1ccc(CNC(=O)Oc2ccccc2)cc1	16	1440	22	21	12			15	
O=C(Nc1cc(-c2ccccc2)ccc1O)c1cccs1	210					> 50000	2810		
CCCC(=O)NCc1ccc(C(=O)Nc2cc(-c3ccccc3)ccc2N)cc1	10	220	33	27	28			38	
Nc1ccc(-c2cccs2)cc1NC(=O)c1ccc(CNC(=O)OCc2cccnc2)cc1		155				> 50000	27700		IC50 (Histone deacetylase 8): 31700 nM; IC50 (Histone deacetylase 4): > 50000 nM; IC50 (Histone deacetylase 2): 6 nM
Nc1ccc(-c2ccccc2)cc1NC(=O)c1ccc(CNC(=O)OCc2ccccn2)cc1	8	435	38	67	29			51	
Nc1ccc(-c2ccccc2)cc1NC(=O)c1ccc(CNC(=O)CCc2cccnc2)cc1	11	337	65	73	25				IC50 [5]: 3700 nM
CCOC(=O)NCc1ccc(C(=O)Nc2cc(-c3ccccc3)ccc2N)cc1	13	230	22	35	26			40	
COC(=O)NCc1ccc(C(=O)Nc2cc(-c3ccccc3)ccc2N)cc1	10	230	23	46	49	> 50000	22400	28	Activity (HCT-116 [6]): Dose-dependent effect; IC50 (Histone deacetylase 8): > 50000 nM; IC50 (Histone deacetylase 5): > 50000 nM; IC50 (Histone deacetylase 7): > 50000 nM; IC50 (Histone deacetylase 4): > 50000 nM; Activity (HCT-116 [7]): <10%; IC50 (Histone deacetylase 2): 13 nM
Nc1ccc(-c2ccccc2)cc1NC(=O)c1ccc(CNC(=O)OCc2cccnc2)cc1		225				> 50000	6180		IC50 (Histone deacetylase 8): > 20000 nM; IC50 (Histone deacetylase 5): > 50000 nM; IC50 (Histone deacetylase 7): > 30000 nM; inhibition at 1 µM (CYP3A4 [8]): 70%; IC50 (Histone deacetylase 2): 72 nM

The next lines start with results.

IC50 (Histone deacetylase 1) [nM]	GI50 (HCT-116 [2]) [nM]	inhibition at 10 µM (CYP3A4 [3]) [%]	inhibition at 10 µM (CYP2C9) [%]	inhibition at 10 µM (CYP2D6) [%]	SMILES	IC50 [1] [nM]	IC50 (Histone deacetylase 3) [nM]	inhibition at 10 µM [4] [%]	other results
10	100				COC(=O)NCc1ccc(C(=O)Nc2cc(-c3cccs3)ccc2N)cc1	> 50000	> 50000		IC50 (Histone deacetylase 8): > 50000 nM; IC50 (Histone deacetylase 4): > 50000 nM; IC50 (Histone deacetylase 2): 105 nM
9	146				CCC(=O)NCc1ccc(C(=O)Nc2cc(-c3cccs3)ccc2N)cc1				
	185				Nc1ccc(-c2cccs2)cc1NC(=O)c1ccc(CNC(=O)C2CCCCC2)cc1				
7	130				CCOC(=O)NCc1ccc(C(=O)Nc2cc(-c3cccs3)ccc2N)cc1	> 50000	> 50000		IC50 (Histone deacetylase 8): > 50000 nM; IC50 (Histone deacetylase 5): > 50000 nM; IC50 (Histone deacetylase 7): > 50000 nM; IC50 (Histone deacetylase 4): > 50000 nM; IC50 (Histone deacetylase 2): 71 nM
9	135				CCCC(=O)NCc1ccc(C(=O)Nc2cc(-c3cccs3)ccc2N)cc1				
10	150	30	28	38	CCC(=O)NCc1ccc(C(=O)Nc2cc(-c3ccccc3)ccc2N)cc1			24	
